Entries after “also recorded” stand apart in the source; their conditions may differ. A value given as a limit tells only on which side of the number the result lay.

A short description of data set [1]: particle size distribution by dynamic light scattering (Zetasizer Nano ZS). The class given is physicochemical. The protocol: The particle size distribution of the prepared emulsion was measured by dynamic light scattering using Zetasizer Nano ZS. The measurement conditions were 1 mM emulsion (40 μL) at 25° C. As a result, in all compositions, the volume median diameter was not more than 100 nm and, when a linear head was used (i.e., the formula (I) wherein X^a and X^b are each X^1), the particle size was not more than 50 nm. The drug recovery rate was not less than 85% (FIG. 1, Table 2).
EPC and Cholesterol were mixed to achieve 1000 nmol and a PEG lipid was added. Chloroform in an amount equal to that of the lipid ethanol solution was added and the mixture was dried under a nitrogen blow. PBS (1 mL) was added to the lipid membrane after drying and the mixture was stood for 10 min and sonicated by a bath-type sonicator for 3 min to give a particle suspension. The particle size distribution of the prepared particles was measured by dynamic light scattering in the same manner as in Example 1.
The particle size distribution of the produced emulsion solution was measured by dynamic light scattering similarly to Example 1. As a result, when DOPC was used, the volume median diameter was near 40 nm irrespective of pH.
An ethanol solution containing 500 nmol as a total of cationic B-2, DOPE, and Cholesterol was prepared, and a PEG lipid was added in the above-mentioned amount. Ethanol was added to make the total amount 200 μL, and the mixture was stood at ice temperature for 15 min. A similarly ice-cooled malic acid buffer (20 mM, pH 3.0, 0-1000 mM NaCl) (200 μL) was mixed within 3 sec under vortex. PBS (NISSUI) (3600 μL) was immediately added thereto. The mixture was subjected to ultrafiltration using Amicon Ultra (Millipore). The centrifugation conditions were 1000 G, 25° C. An operation including addition of 3200 μL of PBS after centrifugation for 10 min was repeated twice and the sample was concentrated to about 500 μL. The concentrate was diluted with PBS to a mass of 1000 mg to give a 0.5 mM (lipid concentration) emulsion. The particle size distribution of the produced emulsion solution was measured by dynamic light scattering similarly to Example 1.
The volume median diameter and the surface potential were measured using the dynamic light scattering (Zetasizer Nano; Malvern) in the same manner as in Example 1.
The average particle size of the produced particles was measured in the same manner as in Example 1 and the results are shown in Table 7.

Data set [2] in a line: organ accumulation of particles in 4T1 tumor-bearing mouse (IVIS). It counts as in vivo, BALB/c mouse. The conditions noted are these: intravenous, lipid 800 nmol, 24 hr after administration, DiR fluorescence. The protocol: As cationic lipid, B-2 and B-2-5 were used. As conventional lipid, DODAP and EPC were used. The preparation methods of the O/W type emulsion and particle suspensions (DODAP, EPC) followed the methods described in Example 1 and Comparative Example 1. To visualize pharmacokinetics of the oil droplets constituting the O/W type emulsion or particle suspension (DODAP, EPC), fluorescent dye DiR was added by 0.2 mol % of the lipid. The particle concentration was adjusted to 4 mM as a lipid concentration.
As a tumor-bearing mouse, 4T1 cell (mouse breast cancer) was used. 1×10^6 4T1 cells were subcutaneously transplanted to the right flank of BALB/c mouse (♀, 4-week-old). At 7 days from the transplantation, 200 μL (lipid 800 nmol) of the O/W type emulsion or particle suspension (DODAP, EPC) containing fluorescence-modified particles was intravenously administered. At 24 hr after administration, […] was performed, and the spleen, liver and tumor were collected and image was obtained by IVIS. The average fluorescence intensity was calculated using Living Image Software.
As a cationic lipid, B-2 was used. An O/W type emulsion was prepared according to Example 3. In this preparation, 4-Methylumbelliferon (10 mol %) was used as a model drug and DMG-PEG2000 (10 mol %) and DSG-PEG2000 (2.5 mol %) were used as PEG lipids, and a 4.0 mM (based on lipid concentration) emulsion was prepared. To visualize pharmacokinetics of the oil droplets constituting the O/W type emulsion or particle suspension (DODAP, EPC), fluorescent dye DiR was added by 0.2 mol % of the lipid. As the salt (NaCl) concentration during preparation of particles, 30 mM, 150 mM, 750 mM were selected and taken as “Small”, “Medium”, “Large”, respectively. The particle concentration was adjusted to 4 mM as a lipid concentration.
The organ distribution in a tumor-bearing mouse was evaluated in the same manner as in Experimental Example 1. As a result, accumulation in the spleen, liver decreased as the particle size became smaller.

A short description of data set [3]: DexPal-carrying rate by high performance liquid chromatography. It counts as physicochemical. The following applies: DexPal-carrying LNP. The protocol:
1 mM DexPal-carrying LNP (50 μL) was mixed with phosphate buffer (pH 7.4) (50 μL), and 50 μL thereof was mixed with MeOH (50 μL). 0.1% Trifluoroacetic acid/acetonitrile (400 μL) was added, and DexPal was detected by high performance liquid chromatography (column: InertSustain C18, 5 μm, 4.6 mm×250 mm (GL Sciences Inc.), mobile phase: MeOH:0.1% trifluoroacetic acid/acetonitrile=70:30, flow rate: 1 mL/min, detector: 240 nm, injection volume: 200 μL). As the analytical curve of Dex-Pal, 0.5 mM, 0.25 mM, 0.125 mM, 0.0625 mM, DexPalethanol solution (50 μL) was mixed with MeOH (50 μL), and 50 μL thereof was mixed with phosphate buffer (pH 7.4) (50 μL). 0.1% Trifluoroacetic acid/acetonitrile (400 μL) was added, and DexPal was detected by a method similar to that for DexPal-carrying LNP. The peak area and concentration were plotted, and the DexPal concentration and carrying rate in the DexPal-carrying LNP were calculated.

The conditions of data set [4]: water/octanol; cited from earlier work.
[5] abbreviates: O/W emulsion cationic lipid:DOPE:Cholesterol=3:4:3, 4-Methylumbelliferon 10 mol %, DMG-PEG2000 10 mol %, DSG-PEG2000 2.5 mol %.
[6] abbreviates: O/W emulsion cationic lipid:DOPE:Cholesterol=3:4:3, 4-Methylumbelliferon 10 mol %, DMG-PEG2000 10 mol %, DSG-PEG2000 2.5 mol %, 1 mM, 25° C.
Setting [7] is: B-2:helper lipid:Cholesterol=3:4:3, 15 mol % DMG-PEG2000, malic acid buffer pH 4.0.
The mark [8] stands for this setting: B-2:helper lipid:Cholesterol=3:4:3, 15 mol % DMG-PEG2000, pH 3.0.
Setting [9] is: B-2:helper lipid:Cholesterol=3:4:3, 15 mol % DMG-PEG2000, pH 4.0.

On to `CCCCC/C=C\C/C=C\CCCCCCCC(=O)OCCCN(C)CCSSCCN(C)CCCOC(=O)CCCCCCC/C=C\C/C=C\CCCCC` [B-2-3], for which the PdI in data set [1] (setting [5]) stood at 0.419. In addition, in data set [1] (setting [6]), the volume median diameter was found to be 34.3 nm.

Take `Cc1c(C)c2c(c(C)c1OC(=O)CCC(=O)OCCCN(C)CCSSCCN(C)CCCOC(=O)CCC(=O)Oc1c(C)c(C)c3c(c1C)CCC(C)(CCCC(C)CCCC(C)CCCC(C)C)O3)CCC(C)(CCCC(C)CCCC(C)CCCC(C)C)O2` (stereo not drawn) [B-2-5]: in data set [2], the “accumulation in the liver” value is reported as “superior in accumulation in the liver; also recorded: found”. The PdI in data set [1] (setting [5]) amounted to 0.164. In addition, the volume median diameter in data set [1] (setting [6]) is 41.2 nm.

On to `CCCCCCCCCCCCCC(=O)OCCCN(C)CCSSCCN(C)CCCOC(=O)CCCCCCCCCCCCC` [B-2], for which the transfer into tumor result in data set [2] was “transfer well into tumor”. The molecule further came in with a carrying rate in data set [3] of 90.6 ± 5.2%. The volume median diameter in data set [1] (B-2:DOPE:Cholesterol=3:4:3, 15 mol % DMG-PEG2000, NaCl concentration of 60 mM or below at preparation) is 30-50 nm; in data set [1] (B-2:DOPE:Cholesterol=3:4:3, 15 mol % DMG-PEG2000, salt concentration of 500 mM or below at preparation) it was not above 100 nm; in data set [1] (DexPal-carrying particles (lipid, DOPC, Chol, DMG-PEG2000, DSG-PEG2000, DexPal)), 41.4 ± 0.7 nm·days; in data set [1] (setting [6]), 37.6 nm. Further, the PdI in data set [1] (DexPal-carrying particles) amounted to 0.15 ± 0.01; in data set [1] (setting [5]) it was 0.465.

For `CCCCCCCC/C=C\CCCCCCCC(=O)OC[C@H](COP(=O)([O-])OCC[N+](C)(C)C)OC(=O)CCCCCCC/C=C\CCCCCCCC` [DOPC, dioleoylphosphatidylcholine], the volume median diameter in data set [1] (B-2:helper lipid:Cholesterol=3:4:3, 15 mol % DMG-PEG2000, malic acid buffer pH 3.0) was 41.5 nm; in data set [1] (setting [7]), 40.5 nm; in data set [1] (B-2:helper lipid:Cholesterol=3:4:3, 15 mol % DMG-PEG2000, malic acid buffer pH 5.0), 45.6 nm; in data set [1] (B-2:helper lipid:Cholesterol=3:4:3, irrespective of pH (3.0-5.0)) it was “about 40 nm”. Besides, the PdI in data set [1] (setting [8]) is 0.319; in data set [1] (setting [9]) it was 0.214; in data set [1] (B-2:helper lipid:Cholesterol=3:4:3, 15 mol % DMG-PEG2000, pH 5.0), 0.196.

`CCCCCCCC/C=C\CCCCCCCC(=O)OC[C@H](COP(=O)(O)OCCN)OC(=O)CCCCCCC/C=C\CCCCCCCC` [DOPE, dioleoylphosphatidylethanolamine]: the volume median diameter in data set [1] (setting [7]) worked out at 90.2 nm. For the same molecule, the results for the PdI in data set [1] (setting [8]) and in data set [1] (setting [9]) were 0.191 and 0.078, respectively.

Molecule `CCCCC/C=C\C/C=C\CCCCCCCC(=O)OCCN1CCN(CCSSCCN2CCN(CCOC(=O)CCCCCCC/C=C\C/C=C\CCCCC)CC2)CC1` [L-PZ4C2] displayed a PdI in data set [1] (setting [5]) of 0.092. The volume median diameter in data set [1] (setting [6]) was found to be 75.8 nm.

In the case of `CCCCCCCC/C=C\CCCCCCCC(=O)OCCCN(C)CCSSCCN(C)CCCOC(=O)CCCCCCC/C=C\CCCCCCCC` [O-C3M], in data set [1] (setting [5]), the PdI turned out to be 0.228. Besides, the volume median diameter in data set [1] (setting [6]) is recorded as 38.4 nm.

For `Cc1c(C)c2c(c(C)c1OC(=O)CCC(=O)OCCC1CCN(CCSSCCN3CCC(CCOC(=O)CCC(=O)Oc4c(C)c(C)c5c(c4C)CCC(C)(CCCC(C)CCCC(C)CCCC(C)C)O5)CC3)CC1)CCC(C)(CCCC(C)CCCC(C)CCCC(C)C)O2` (stereo not drawn) [TS-P4C2], the PdI in data set [1] (setting [5]) was found to be 0.063. This molecule also yielded a volume median diameter in data set [1] (setting [6]) of 87.9 nm.

In the case of tocopherol, the “Log Pow” value in data set [4] was 10.96.

Source of the values: patent US11395798B2, “O/W type emulsion” (NOF CORPORATION, priority 2015, dated 2022).
